Results reported in patent publication US11141490B2, “Antibody-drug conjugates based on gold compounds” (Research Foundation of the City University of New York, priority 2018, dated 2021).
“And” between values parts separate entries of the source, which are not always exact repeats. Equal entries are not always repeated.

How the values were obtained:
MCF-7 cells = test: Cell viability assay (PrestoBlue), MCF-7; type: cell-based, human; conditions: MCF-7, 72 h
Protocol: (§1) Cell viability assays were carried out to investigate the anti-proliferative effect of the AGCs. […] Auranofin was used for comparative purposes. […] Cells were incubated with the compounds for 72 hours and viability was assessed with Presto Blue. […] As mentioned before, linkers bring considerable advantages in terms of ADC stability.
(§2) Cell viability analysis for all compounds and AGCs described.
(§3) MCF7, MCF10A and BT-474 were obtained from the American Type Culture Collection (ATCC) (Manassas, Va.) and cultured in Dulbecco's modified Eagle's medium (DMEM) (Mediatech) supplemented with 10% FBS, 1% NEAA and 1% penicillin-streptomycin (MCF7 AND MCF1 OA) or DME HG/F12K, NEAA, 2 mM glutamine, 10% FBS/PS and incubated at 37° C. and 5% CO2 in a humidified incubator.
(§4) After 72 h, cell viability was determined by means of the colorimetric cell viability assay PrestoBlue (Invitrogen, Carlsbad, Calif.) according to the manufacturer's intructions. EC50 were fit using GraphPad Prism 7 to best match the experimental data.
(§5) Tables 3 and Table 4 show EC50 Values (μM) in MCF7, MCF10A and BT474 cell lines determined with [AuCl(PPh3)] (DMF), [Au(mba)(PPh3)]

BT-474 cells = test: Cell viability assay (PrestoBlue), BT-474; type: cell-based, human; conditions: BT-474, 72 h
Protocol: as §1, §2, §3, §4, §5

MCF-10A cells = test: Cell viability assay (PrestoBlue), MCF-10A; type: cell-based, human; conditions: MCF-10A non-cancerous breast cell line, 72 h
Protocol: as §1, §2, §3, §4, §5

[1] = DMSO solution at room temperature; cited from earlier work
[2] = humans, rheumatoid arthritis medication; cited from earlier work

Compound	EC50 (MCF-7 cells)	EC50 (BT-474 cells) [µM]	EC50 (MCF-10A cells) [µM]	time stable in solution [1] [h]	patients affected by most severe side effects (diarrhea and rashes) [2]
[Au(mba)(PPh3)] [reference compound]	2.4 µM and 2.36 µM	3.51 ± 0.16	5.52 ± 0.36	–	–
CC[P](CC)(CC)=[Au][S][C@@H]1O[C@H](COC(C)=O)[C@@H](OC(C)=O)[C@H](OC(C)=O)[C@H]1OC(C)=O [AF, [(2R,3R,4S,5R,6S)-3,4,5-tris(acetyloxy)-6-{[(triethyl-λ5-phosphanylidene)aurio]sulfanyl}-oxan-2-yl]methyl acetate]	–	–	–	> 72	26-40%
[Cl][Au].c1ccc(P(c2ccccc2)c2ccccc2)cc1 [[AuCl(PPh3)], reference compound]	3.6 µM and 3.57 µM	3.32 ± 0.1	18.9 ± 1.3	–	–
